From patent US11447533B2, “Antimicrobial and anticancer peptides and conjugates and compositions, methods, articles and kits relating thereto” (George Mason Research Foundation, Inc., priority 2018, dated 2022)

Key:
[1] = tested on: E. coli ATCC 25922; experiment: Antimicrobial efficacy (resazurin virtual colony count); format: cell-based, Escherichia coli; details: PBS (high / physiologically relevant ionic strength), pH 7.4
Procedure: Antimicrobial Studies. The phosphate buffers used for antimicrobial assays were supplemented with non-nitrogenous energy source, 0.1% (w/v) glucose. To conduct antimicrobial assays, bacterial strains were first suspended in respective buffers. E. coli (ATCC 25922) and B. cereus (ATCC 11778) were grown in MHB II up to OD600 nm˜1 and stored as frozen stock in 20% glycerol at −80° C. Occasionally they were thawed and enumerated by serial dilution and spreading on MHB II agar plates. The concentrations of the frozen stocks of E. coli and B. cereus strains were 1.0-1.1*10^8 CFU/mL with OD600 nm˜0.8. In case of other bacterial strains, they were grown on the days of experiment up to OD600 nm˜1-1.5 and then adjusted to OD600 nm˜0.8. The growth media of the drug-resistant bacterial strains were supplemented with few of the respective antibiotics against which they are resistant. 200 μL of the 0.8 OD600 nm culture were added to 10 mL of the respective buffer to obtain a suspension which was used to incubate with equal volumes of peptide solution in the same buffer.
Antimicrobial assays in different phosphate buffers and serum were conducted by adapting, with necessary modifications a fast high-throughput method based on Virtual Colony Count technique and later modified by incorporating the use of resazurin. At first serial dilution of a microbial strain in respective buffer was poured in the wells of 96 well polypropylene microplate and was then added with same volume of 2× MHB II supplemented with 80 μg/mL resazurin and incubated at 35° C. in a Gemini EM Microplate Reader (Molecular Devices) overnight with intermittent shaking. As the microbe grows it reduces non-fluorescent resazurin to fluorescent resorufin and the fluorescent intensity of each well were measured (excitation=570 nm, emission=590 nm) each 5 min for 15 hours. The time (t, min) to reach a certain fluorescence (RFU=20000 with respect to the starting fluorescence) was correlated with the initial bacterial concentration (in CFU/mL) in the particular well to obtain a calibration plot of the form: Log([Bacteria],CFU/mL)=b+m*t Equation 4: […]
To obtain antimicrobial efficacy of the peptides, 50 μL of serially diluted peptide in a buffer was incubated with 50 μL microbial suspension in the same buffer for 3 hours in black polypropylene 96 well plate. After incubation the wells were added with 100 μL of 2× MHB II supplemented with 80 μg/mL resazurin and then incubated with continuous fluorescence reading for overnight time period as described earlier. The surviving microbial population (CFU/mL) in each well were calculated by first finding the time to reach a fluorescence of RFU=20000 and the correlation (4) for the specific microbial strain and buffer. % Survival represents the proportion of viable cells in peptide treated cells relative to cells treated with the respective buffer alone. Equation 5: […]
Finally, the antimicrobial effectiveness of each peptide against the particular microbial strain in the specific buffer was determined by plotting % microbial survival as a function of the log of the concentration of the peptide and fitting the resulting data to a variable-slope sigmoidal regression model (equation 6). In this equation, log(EC50) represents the log of the concentration of the peptide required to kill half of the microbial population, where Smin and Smax correspond to the minimal and maximal microbial survival values (respectively), and H, Hill slope, is the parameter defining the steepness of the transition slopes of sigmoidal survival curves. % Microbial survival=Smin+(Smax−Smin)/(1+10^log(EC^50^)-log[peptide]*H) Equation 6: […]
The antimicrobial efficacies of the peptides were first tested against the model Gram-negative bacteria, E. coli ATCC 25922, in different phosphate buffers having varied ionic strengths and compositions. The phosphate buffers that were used included 10 mM sodium phosphate (calculated ionic strength˜25 mM), PBS and DPBS. […]

[2] = Endotoxin binding: competitive displacement of BODIPY TR-Cadaverine from LTA; design: species or system Staphylococcus aureus; details: 5 μM peptide, 10 μM BC, 10 μg/mL LTA, 10 mM Na-PO4
Procedure: (§1) FIGS. 2A-2B are graphs showing endotoxin binding. The figures depict the competitive displacement of BC from LPS/LTA by the peptides. 5 μM of each peptide was incubated with 10 μM BC and 10 μg/mL LPS from E. coli (0111:B4) or LTA from S. aureus. Fluorescence intensity was measured at excitation=580 nm and emission=620 nm. 10 μM BC without endotoxin was used as 100% displacement while 10 μM BC with 10 μg/mL LPS/LTA without any peptide as 0% displacement and the % displacement of BC by each peptide was calculated accordingly. […] had been used as a positive control. The horizontal dotted line coincides with the % displacement of BC by ATRA1 on the y-axis.
(§2) FIGS. 6A-6B are graphs showing endotoxin (LPS (FIG. 6A) and LTA (FIG. 6B)) binding. Competitive displacement of BC from LPS/LTA. In each case, 5 μM peptide was incubated with 10 μM BC and 10 μg/mL LPS from E. coli (0111:B4) or LTA from S. aureus. Fluorescence intensity was measured using excitation=580 nm and emission=620 nm. As a positive control 10 μM BC without endotoxin was used as a reference for 100% displacement while 10 μM BC with 10 μg/mL LPS/LTA without any peptide as a negative control and a reference for 0% displacement. These controls were used to calculate % BC displacement for each peptide.
(§3) Endotoxin Binding. The binding of endotoxin (LPS/LTA) was evaluated using a fluorogenic conjugateBODIPY TR-Cadaverine (BC). BC binds endotoxin loses its fluorescence. The peptide competitively displaces BC from endotoxin and the fluorescence is reestablished. Competitive inhibition of endotoxin-BC binding was utilized due to presence of peptides already in complexion with endotoxin. 25 μL of 20 μM of peptides in 10 mM Na—PO4 buffer were incubated with 25 μL of LPS (40 μg/mL) or LTA (40 μg/mL) for 15 min and then added with 50 μL of BC (20 uM). Peptides bind to LPS or LTA and competitively prevents BC bind to the endotoxin. BC loses its fluorescence on binding to endotoxin. The fluorescence intensity of the unbound BC was measured at excitation=580 nm and emission=620 nm.
(§4) BC contains two functional moieties: BODIPY (boron-dipyrromethene) and cadaverine connected via a carboxamide. BODIPY is the fluorophore of BC and fluoresces in the free state in solution but loses fluorescence when bound to LPS/LTA. The competitive displacement of BC from LPS/LTA by AMPs and thus regeneration of the fluorescence has frequently been used to estimate the binding strength of AMPs with LPS/LTA. In the present studies, 5 μM of each peptide was used to displace BC from LPS/LTA. […] Such observation contradicts the initial assumption that substitution of Lys with arginine would result in increased efficiency of LPS binding. However, with sequential substitutions of Lys with arginine, starting with ATRA1-AR, peptide variants show increased LPS binding with each additional arginine substitution. In terms of LPS binding: ATRA1-AR<ATRA1-AR2<ATRA1-AR3. In ATRA1-R3, the lysine residues at 9th, 5th and 1st positions of ATRA1 were substituted with arginine. In ATRA1-R6 all of the lysine residues were replaced with arginine.

[3] = Endotoxin binding: competitive displacement of BODIPY TR-Cadaverine from LPS; design: species or system Escherichia coli; details: 5 μM peptide, 10 μM BC, 10 μg/mL LPS, low ionic-strength 10 mM Na-PO4
Procedure: as §1, §2, §3, §4

[4] = tested on: primary lung epithelium cells; experiment: Cytotoxicity (Alamar blue); format: cell-based, human; details: ~16 hours (overnight), reduced serum conditions
Procedure: FIGS. 11A-11B are graphs showing cytotoxicity against primary lung epithelium cells in serum-free condition. Cells were seeded in complete growth medium (Minimal essential medium supplemented with 10% fetal bovine serum) at near-confluence into a 96-well plate and allowed to settle for 24-hours. Media was then replaced to OptiMEM I reduced serum medium containing peptide or vehicle alone (DBPS) and cells were incubated overnight (16 hours). A resazurin based dye (Alamar blue) was added directly to media and conversion of resazurin to resorufin was evaluated following two hours. % Survival represents the proportion of viable cells in peptide treated cells relative to cells treated with vehicle alone. […] Each peptide was tested in triplicate.
FIG. 12 is a graph showing comparison of toxicities against Lung Primary Epithelial cells and Lung Cancerous Epithelial Cells, derived from H358 cell-line. […] Each peptide was tested in triplicate.
Cytotoxicity. Cells were seeded in complete growth medium (Minimal Essential Medium, MEMα, supplemented with 10% Fetal Bovine Serum) into a culture-treated 96-well plate at a density of 25000 cells per well. After 24 hours, culture media was aspirated and replaced with media containing the selected peptide. No-serum experiments were conducted in Opti-MEM I reduced serum media (ThermoFisher, 31985062) and 10% serum experiments were performed in complete growth medium. In all cases, DBPS was used as a vehicle only control and buffer to serially dilute the peptides. After exposure to the peptides or vehicle-alone for the defined period, Alamar blue dye (resazurin) was added directly to the media and allowed to incubate for two hours. Following incubation, A570/A600 measurements were made to calculate reduction of resazurin dye to resorufin. A ratio of reduction in treated versus untreated cells was calculated in order to determine overall cell viability. The human cells were always maintained in a 37° C. incubator under 5% CO2.

Molecule	antimicrobial efficacy, in words [1]	LTA binding (BC displacement), in words [2]	LPS binding (BC displacement), in words [3]	cytotoxicity, in words [4]
KKAKKFFKKLK (SEQ ID NO: 5) [ATRA1-AK]	lost activity in PBS	highest LTA binding	highest LPS binding among all the peptides	
CC[C@H](C)[C@H](NC(=O)CN)C(=O)NCC(=O)N[C@@H](C)C(=O)N[C@H](C(=O)N[C@@H](CC(C)C)C(=O)N[C@@H](CCCCN)C(=O)N[C@H](C(=O)N[C@@H](CC(C)C)C(=O)N[C@H](C(=O)N[C@H](C(=O)NCC(=O)N[C@@H](CC(C)C)C(=O)N1CCC[C@H]1C(=O)N[C@@H](C)C(=O)N[C@@H](CC(C)C)C(=O)N[C@H](C(=O)N[C@@H](CO)C(=O)N[C@@H](Cc1c[nH]c2ccccc12)C(=O)N[C@H](C(=O)N[C@@H](CCCCN)C(=O)N[C@@H](CCCNC(=N)N)C(=O)N[C@@H](CCCCN)C(=O)N[C@@H](CCCNC(=N)N)C(=O)N[C@@H](CCC(N)=O)C(=O)N[C@@H](CCC(N)=O)C(N)=O)[C@@H](C)CC)[C@@H](C)CC)[C@@H](C)O)[C@@H](C)O)C(C)C)C(C)C [melittin]				killed the cells at the highest degree
